Our source for the IC50 values is patent US20070123465A1, “Oligomeric peptides and their use for the treatment of hiv infections” (IPF PHARMACEUTICALS GMBH, priority 2004, published 2007).

Bridge positions count the residues as written; N and C are the ends. Square brackets hold non-standard residues; d marks the D form. Peptide text beside a SMILES is read from it. I, II: the chains in the order shown. dTic = O=C(O)[C@H]1Cc2ccccc2CN1; NMeL = CN[C@@H](CC(C)C)C(=O)O

This assay has as its system HIV-1 NL4-3. In kind it is cell-based. Conditions: X4-tropic HIV-1 NL4-3, P4-CCR5 cells. An excerpt:
P4-CCR5 indicator cells (Charneau et al., 1994; Journal of Molecular Biology 241, 651-662) expressing the primary CD4 receptor and both major HIV-1 entry cofactors CXCR4 and CCR5, were used to evaluate whether the oligomeric peptides according to the invention are potent inhibitors of HIV-1 infection. These cells contain the β-galactosidase reporter gene under the control of the HIV-1 promoter. Thus, activation of the β-galactosidase reporter gene allows to measure the efficiency of HIV-1 infection and thus to quantitate the potency of HIV-1 inhibitors (Detheux M. et al., 2000; Journal of Experimental Medicine 192, 1501-1508; Muinch et al., 2002; Antimicrobial Agents and Chemotherapy 46, 982-990).
To perform a typical infection assay, P4-CCR5 cells (Charneau et al., 1994; Journal of Molecular Biology 241, 651-662; Charneau et al., Virology. 1994 205, 247-53) were kept in RPMI 1640 medium supplemented with 10 volume % FCS. This cell line coexpresses CD4 and both HIV-1 coreceptors CCR5 and CXCR4 and contains the β-galactosidase gene under the control of the HIV-1 promoter. Virus stocks were generated by the calcium coprecipitation method as described (Detheux et al., 3 Exp Med. 192:1501-8; 2000), and the p24 antigen levels were quantitated with an HIV p24 ELISA kit obtained through the NIH AIDS Reagent Program. Cells were seeded in flat-bottomed 96-well dishes, cultured overnight, and incubated with the different doses of peptide for 2 h before infection with virus containing 1 ng of p24 antigen in a total volume of […] of medium. After overnight incubation, cells were washed twice and cultivated in fresh culture medium without inhibitory peptide. Three days after infection the cells were lysed, and infectivity was quantitated using the Galacto-Light Plus™ chemiluminescence reporter assay kit (Tropix, Bedford, Mass.) as recommended by the manufacturer. All infections were performed in quintuplicate.
Below, the IC50 values of peptides of the invention obtained from the described infection assay are provided.
As usually defined, the IC50 is the concentration needed to halve the response being measured. A higher IC50 goes with weaker potency in that assay. `CC[C@H](C)[C@H](NC(=O)[C@H](C)NC(=O)[C@H](CCC(=O)O)NC(=O)[C@@H](N)CC(C)C)C(=O)N1CCC[C@H]1C(=O)N[C@@H](CCSC)C(=O)N[C@@H](CSSC[C@H](NC(=O)[C@H](CCSC)NC(=O)[C@@H]1CCCN1C(=O)[C@@H](NC(=O)[C@H](C)NC(=O)[C@H](CCC(=O)O)NC(=O)[C@@H](N)CC(C)C)[C@@H](C)CC)C(=O)N[C@H](C(=O)N1CCC[C@H]1C(=O)N1CCC[C@H]1C(=O)N[C@@H](CCC(=O)O)C(=O)N[C@@H](Cc1ccccc1)C(=O)N[C@@H](CC(C)C)C(=O)N[C@@H](Cc1ccccc1)C(=O)NCC(=O)N[C@@H](CCCCN)C(=O)N1CCC[C@H]1C(=O)N[C@@H](Cc1ccccc1)C(=O)N[C@H](C(=O)N[C@@H](Cc1ccccc1)C(=O)O)C(C)C)[C@@H](C)CC)C(=O)N[C@H](C(=O)N1CCC[C@H]1C(=O)N1CCC[C@H]1C(=O)N[C@@H](CCC(=O)O)C(=O)N[C@@H](Cc1ccccc1)C(=O)N[C@@H](CC(C)C)C(=O)N[C@@H](Cc1ccccc1)C(=O)NCC(=O)N[C@@H](CCCCN)C(=O)N1CCC[C@H]1C(=O)N[C@@H](Cc1ccccc1)C(=O)N[C@H](C(=O)N[C@@H](Cc1ccccc1)C(=O)O)C(C)C)[C@@H](C)CC` [VIR-577] (I: H-LEAIPMCIPPEFLFGKPFVF-OH / II: H-LEAIPMCIPPEFLFGKPFVF-OH; disulfide I:7-II:7) displayed a concentration for half-maximal inhibition (IC50) of 3270 nM.

`CC[C@H](C)[C@H](NC(=O)[C@H](CCCCN)NC(=O)[C@H](CCC(=O)O)NC(=O)[C@@H](N)CC(C)C)C(=O)N1CCC[C@H]1C(=O)N[C@@H](CSSC[C@H](NC(=O)[C@@H]1CCCN1C(=O)[C@@H](NC(=O)[C@H](CCCCN)NC(=O)[C@H](CCC(=O)O)NC(=O)[C@@H](N)CC(C)C)[C@@H](C)CC)C(=O)N[C@@H](CO)C(=O)N[C@H](C(=O)N1CCC[C@H]1C(=O)N1CCC[C@@H]1C(=O)N[C@@H](CCC(=O)O)C(=O)N[C@H](C(=O)N[C@@H](C)C(=O)N[C@@H](Cc1ccccc1)C(=O)N[C@@H](CC(N)=O)C(=O)N[C@@H](CCCCN)C(=O)N1CCC[C@H]1C(=O)N[C@@H](Cc1ccccc1)C(=O)N[C@H](C(=O)N[C@@H](Cc1ccccc1)C(=O)O)C(C)C)C(C)C)[C@@H](C)CC)C(=O)N[C@@H](CO)C(=O)N[C@H](C(=O)N1CCC[C@H]1C(=O)N1CCC[C@@H]1C(=O)N[C@@H](CCC(=O)O)C(=O)N[C@H](C(=O)N[C@@H](C)C(=O)N[C@@H](Cc1ccccc1)C(=O)N[C@@H](CC(N)=O)C(=O)N[C@@H](CCCCN)C(=O)N1CCC[C@H]1C(=O)N[C@@H](Cc1ccccc1)C(=O)N[C@H](C(=O)N[C@@H](Cc1ccccc1)C(=O)O)C(C)C)C(C)C)[C@@H](C)CC` [VIR-705, (LEKIPCSIPpEVAFNKPFVF)2] (I: H-LEKIPCSIP[dP]EVAFNKPFVF-OH / II: H-LEKIPCSIP[dP]EVAFNKPFVF-OH; disulfide I:6-II:6): the half-maximal inhibitory concentration (IC50) was determined as 484 nM.

`CC[C@H](C)[C@H](NC(=O)[C@H](C)NC(=O)[C@H](CCC(=O)O)NC(=O)[C@@H](N)CC(C)C)C(=O)N1CCC[C@H]1C(=O)N[C@@H](CSSC[C@H](NC(=O)[C@@H]1CCCN1C(=O)[C@@H](NC(=O)[C@H](C)NC(=O)[C@H](CCC(=O)O)NC(=O)[C@@H](N)CC(C)C)[C@@H](C)CC)C(=O)NCC(=O)N[C@H](C(=O)N1CCC[C@H]1C(=O)N1CCC[C@@H]1C(=O)N[C@@H](CCC(=O)O)C(=O)N[C@H](C(=O)N1Cc2ccccc2C[C@@H]1C(=O)N[C@@H](Cc1ccccc1)C(=O)N[C@@H](CC(N)=O)C(=O)N[C@@H](CCCCN)C(=O)N1CCC[C@H]1C(=O)N[C@@H](Cc1ccccc1)C(=O)N[C@H](C(=O)N[C@@H](Cc1ccccc1)C(=O)O)C(C)C)C(C)C)[C@@H](C)CC)C(=O)NCC(=O)N[C@H](C(=O)N1CCC[C@H]1C(=O)N1CCC[C@@H]1C(=O)N[C@@H](CCC(=O)O)C(=O)N[C@H](C(=O)N1Cc2ccccc2C[C@@H]1C(=O)N[C@@H](Cc1ccccc1)C(=O)N[C@@H](CC(N)=O)C(=O)N[C@@H](CCCCN)C(=O)N1CCC[C@H]1C(=O)N[C@@H](Cc1ccccc1)C(=O)N[C@H](C(=O)N[C@@H](Cc1ccccc1)C(=O)O)C(C)C)C(C)C)[C@@H](C)CC` [VIR-706, (LEAIPCGIPpEV(D-Tic)FNKPFVF)2] (I: H-LEAIPCGIP[dP]EV[dTic]FNKPFVF-OH / II: H-LEAIPCGIP[dP]EV[dTic]FNKPFVF-OH; disulfide I:6-II:6; N-terminus and C-terminus assumed) gave a half-inhibitory concentration (IC50) of 74 nM. Compared with the last molecule, the IC50 is about 6.5-fold lower.

Regarding `CC[C@H](C)[C@H](NC(=O)[C@H](C)NC(=O)[C@H](CCC(=O)O)NC(=O)[C@H](CC(C)C)NC)C(=O)N1CCC[C@H]1C(=O)N[C@@H](CSSC[C@H](NC(=O)[C@@H]1CCCN1C(=O)[C@@H](NC(=O)[C@H](C)NC(=O)[C@H](CCC(=O)O)NC(=O)[C@H](CC(C)C)NC)[C@@H](C)CC)C(=O)N[C@@H](CO)C(=O)N[C@H](C(=O)N1CCC[C@H]1C(=O)N1CCC[C@H]1C(=O)N[C@@H](CCC(=O)O)C(=O)N[C@@H](Cc1ccccc1)C(=O)N[C@@H](CC(C)C)C(=O)N[C@@H](Cc1ccccc1)C(=O)NCC(=O)N[C@@H](CCCCN)C(=O)N1CCC[C@H]1C(=O)N[C@@H](Cc1ccccc1)C(=O)N[C@H](C(=O)N[C@@H](Cc1ccccc1)C(=O)O)C(C)C)[C@@H](C)CC)C(=O)N[C@@H](CO)C(=O)N[C@H](C(=O)N1CCC[C@H]1C(=O)N1CCC[C@H]1C(=O)N[C@@H](CCC(=O)O)C(=O)N[C@@H](Cc1ccccc1)C(=O)N[C@@H](CC(C)C)C(=O)N[C@@H](Cc1ccccc1)C(=O)NCC(=O)N[C@@H](CCCCN)C(=O)N1CCC[C@H]1C(=O)N[C@@H](Cc1ccccc1)C(=O)N[C@H](C(=O)N[C@@H](Cc1ccccc1)C(=O)O)C(C)C)[C@@H](C)CC` [VIR-712] (I: H-[NMeL]EAIPCSIPPEFLFGKPFVF-OH / II: H-[NMeL]EAIPCSIPPEFLFGKPFVF-OH; disulfide I:6-II:6; C-terminus assumed), the IC50 turned out to be 195 nM.

In turn, “I: H-LEAIPMSIPPEFLFGKPFVFKG-OH / II: H-LEAIPMSIPPEFLFGKPFVF (amide I:21-II:C) [VIR-574]” had an IC50 of 3080 nM.
